Experimental data taken from patent US20080280952A1 (priority 2004, published 2008).

Molecular target: T1, human cannabinoid CB2 receptor (Homo sapiens, UniProt P34972)
T1 construct: expressed in transfected cells; host or cells: Saccharomyces cerevisiae strain MMY23 (cassette integrated at the ura3 locus, GPD promoter)
Experiment: Cannabinoid CB2 receptor agonist activity, yeast reporter assay
Assay type: cell-based
Conditions: for Emax: read-out: efficacy (Emax) at the cloned human cannabinoid CB2 receptor
Experimental: The cannabinoid CB2 receptor agonist activity of the compounds of formula (I) was determined in accordance with the following experimental method.
Yeast (Saccharomyces cerevisiae) cells expressing the human cannabinoid CB2 receptor were generated by integration of an expression cassette into the ura3 chromosomal locus of yeast strain MMY23. This cassette consisted of DNA sequence encoding the human CB2 receptor flanked by the yeast GPD promoter to the 5′ end of CB2 and a yeast transcriptional terminator sequence to the 3′ end of CB2. MMY23 expresses a yeast/mammalian chimeric G-protein alpha subunit in which the C-terminal 5 amino acids of Gpa1 are replaced with the C-terminal 5 amino acids of human Gαi3 (as described in Brown et al. (2000), Yeast 16:11-22).
Agonists were prepared as 10 mM stocks in DMSO. […] Agonist solutions in DMSO (1% final assay volume) were transferred into black, clear bottom, microtitre plates from NUNC (96- or 384-well). Cells were suspended at a density of 0.2 OD600/ml in SC media lacking histidine, uracil, tryptophan, adenine and leucine and supplemented with 10 mM 3-aminotriazole, 0.1M sodium phosphate pH 7.0, and […] fluorescein di-β-D-glucopyranoside (FDGlu). […] Fluorescence was plotted against compound concentration and iteratively curve fitted using a four parameter fit to generate a concentration effect value. Efficacy (Emax) was calculated from the equation
Equieffective molar ratio (EMR) values were calculated from the equation

T1 sequence (P34972 whole entry): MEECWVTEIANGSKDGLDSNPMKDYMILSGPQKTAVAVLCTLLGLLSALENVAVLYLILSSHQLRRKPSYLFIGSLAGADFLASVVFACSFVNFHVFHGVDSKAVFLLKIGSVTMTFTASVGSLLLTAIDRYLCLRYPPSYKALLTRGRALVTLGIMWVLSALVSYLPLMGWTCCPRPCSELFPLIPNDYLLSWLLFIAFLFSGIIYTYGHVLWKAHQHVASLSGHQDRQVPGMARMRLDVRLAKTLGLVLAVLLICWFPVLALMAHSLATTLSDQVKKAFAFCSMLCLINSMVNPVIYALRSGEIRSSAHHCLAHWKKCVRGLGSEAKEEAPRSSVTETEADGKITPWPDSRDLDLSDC

Row | SMILES | EC50 | Emax
1 | O=C(NCC1CCCC1)c1cnc(Nc2cccc(Cl)c2Cl)cc1C1CC1 [Example 119, N-Cyclopentylmethyl-4-cyclopropyl-6-(2,3-dichloro-phenylamino)-nicotinamide] | 300 to 1000 nM | > 50%
2 | O=C(NCC1CCOCC1)c1ccc(Nc2cccc(Br)c2)nc1C1CC1 [Example 126, 6-(3-Bromo-phenylamino)-2-cyclopropyl-N-(tetrahydro-pyran-4-ylmethyl)-nicotinamide] | 300 to 1000 nM | > 50%
3 | O=C(NCC1CCOCC1)c1cnc(Nc2cc(C(F)(F)F)ccc2Cl)cc1C1CC1 [Example 103, 6-(2-Chloro-5-trifluoromethyl-phenylamino)-4-cyclopropyl-N-(tetrahydro-pyran-4-ylmethyl)-nicotinamide] | 300 to 1000 nM | > 50%
4 | O=C(NCC1CCOCC1)c1cnc(Nc2ccc(OC(F)(F)F)cc2Br)cc1C1CC1 [Example 96, 6-(2-Bromo-4-trifluoromethoxy-phenylamino)-4-cyclopropyl-N-(tetrahydro-pyran-4-ylmethyl)-nicotinamide] | 300 to 1000 nM | > 50%
5 | N#Cc1cccc(Nc2cc(C3CCCC3)c(C(=O)NCC3CCOCC3)cn2)c1 [Example 16, 6-(3-Cyano-phenylamino)-4-cyclopentyl-N-(tetrahydro-pyran-4-ylmethyl)-nicotinamide] | 300 to 1000 nM | > 50%
6 | O=C(NCC1CCOCC1)c1cnc(Nc2cc(C(F)(F)F)ccc2Br)cc1C1CC1 [Example 104, 6-(2-Bromo-5-trifluoromethyl-phenylamino)-4-cyclopropyl-N-(tetrahydro-pyran-4-ylmethyl)-nicotinamide] | 300 to 1000 nM | > 50%
7 | Cc1cccc(Nc2cc(C3CC3)c(C(=O)NCC3CCCC3)cn2)c1 [Example 117, N-Cyclopentylmethyl-4-cyclopropyl-6-(3-methyl-phenylamino)-nicotinamide] | 300 to 1000 nM | > 50%
8 | O=C(NCC1CCC1)c1cnc(Nc2ccc(F)c(C(F)(F)F)c2)cc1C1CC1 [Example 123, N-Cyclobutylmethyl-4-cyclopropyl-6-(4-fluoro-3-trifluoromethyl-phenylamino)-nicotinamide] | 300 to 1000 nM | > 50%
9 | O=C(NCC1CCOCC1)c1cnc(Nc2ccc(Cl)cc2F)cc1C1CCCC1 [Example 24, 6-(4-Chloro-2-fluoro-phenylamino)-4-cyclopentyl-N-(tetrahydro-pyran-4-ylmethyl)-nicotinamide] | 300 to 1000 nM | > 50%
10 | O=C(NCC1CCOCC1)c1cnc(Nc2ccc(Br)c(F)c2)cc1C1CC1 [Example 97, 6-(4-Bromo-3-fluoro-phenylamino)-4-cyclopropyl-N-(tetrahydro-pyran-4-ylmethyl)-nicotinamide] | 300 to 1000 nM | > 50%
11 | O=C(NCC1CCCC1)c1cnc(Nc2ccc(F)cc2F)cc1C1CC1 [Example 99, N-Cyclopentylmethyl-4-cyclopropyl-6-(2,4-difluoro-phenylamino)-nicotinamide] | 300 to 1000 nM | > 50%
12 | O=C(NCC1CCOCC1)c1cnc(Nc2ccc(C(F)(F)F)c(F)c2)cc1C1CC1 [Example 92, 4-Cyclopropyl-6-(3-fluoro-4-trifluoromethyl-phenylamino)-N-(tetrahydro-pyran-4-ylmethyl)-nicotinamide] | 300 to 1000 nM | > 50%
13 | Cc1ccc(Nc2cc(C3CC3)c(C(=O)NCC3CCOCC3)cn2)cc1Cl [Example 112, 6-(3-Chloro-4-methyl-phenylamino)-4-cyclopropyl-N-(tetrahydro-pyran-4-ylmethyl)-nicotinamide] | 300 to 1000 nM | > 50%
14 | N#Cc1ccc(Nc2cc(C3CC3)c(C(=O)NCC3CCOCC3)cn2)c(F)c1 [Example 121, 6-(4-Cyano-2-fluoro-phenylamino)-4-cyclopropyl-N-(tetrahydro-pyran-4-ylmethyl)-nicotinamide] | 300 to 1000 nM | > 50%
